Source: patent US9801901B2, “Alginate oligomers for use in overcoming multidrug resistance in bacteria” (priority 2009, dated 2017)
In brackets after ≈: the same amount, converted by molar mass. Like-named read-outs stand apart in the source and are kept apart here. Marks after values point to notes of the source that are not given here.

How the values were obtained:
[1] = system: Pseudomonas aeruginosa (MDR 301, PSA, V2); assay: MIC-assay, Mueller-Hinton broth with G-block alginate, 384-well, OD600; settings: Pseudomonas aeruginosa, Table 8; V2; G-block (OligoCF-5/20) 10%
[2] = system: PA01 Pseudomonas aeruginosa ATCC 15692; assay: MIC assay, two-fold antibiotic dilutions in CAMHB with alginate oligomer, no visible growth; assay type: cell-based; settings: Pseudomonas aeruginosa, ATCC15692, Table 1, PA01, read-out: MIC
[3] = system: Acinetobacter lwoffii (6056, V22); assay: MIC-assay, Mueller-Hinton broth with G-block alginate, 384-well, OD600
[4] = system: V10 (Egypt) Acinetobacter lwoffii; assay: MIC assay, CAMHB with alginate oligomer, no visible growth; assay type: cell-based; settings: Table 5, V10 MDR Acin. lwoff
[5] = system: V22 6056 Acinetobacter; assay: as above; assay type: cell-based, Acinetobacter lwoffii; settings: Table 5, V22 MDR Acin. lwoff
[6] = system: Acinetobacter baumannii MDR ACB from Libya (V4); assay: as above; assay type: cell-based; settings: for MIC: Acinetobacter baumannii, read-out: MIC
Text: (§1) The study described in Example 1 was repeated with the following strains of bacteria and antibiotics as detailed in Tables 4, 5 and 6.
The study described in Example 1 was repeated with the following strains of Acinetobacter baumannii, antibiotics and M-block alginate oligomer in place of OligoG CF-5/20 as detailed in Table 7. The M-block oligomer is 100% M with a DPn of 15 to 18,

[7] = system: V12 5725 (Wales) Klebsiella pneumoniae; assay: as above; assay type: cell-based; settings: Table 5, V12 MDR Kleb pneu
[8] = system: Pseudomonas aeruginosa MDR R22 from China (V1); assay: as above; assay type: cell-based; settings: Pseudomonas aeruginosa, Table 1, V1 MDR R22 PA, read-out: MIC
Text: as §1

[9] = system: Pseudomonas aeruginosa MDR 301 from Poland (V2); assay: as above; assay type: cell-based; settings: Pseudomonas aeruginosa, Table 1, V2 MDR 301 PA, read-out: MIC
[10] = system: V9 (Egypt) Acinetobacter baumannii; assay: as above; assay type: cell-based; settings: Table 5, V9 MDR Acin. baum
[11] = system: Pseudomonas aeruginosa CFA 24-1, clinical mucoid strain (R80); assay: as above; assay type: cell-based; settings: Pseudomonas aeruginosa, Table 1, R80, read-out: MIC
[12] = system: strains of E. coli displaying MDR phenotypes; assay: MIC-assay, Mueller-Hinton broth with G-block alginate, 384-well, OD600 (Table 11); assay type: cell-based; settings: Escherichia coli, Escherichia coli (5702, Wales, V11) MDR
Text: (§2) Minimum inhibitory concentration (MICs) of different antibiotics for strains of E. coli and Providencia stuartii displaying MDR phenotypes in the presence of varying concentrations of OligoCF-5/20 (0-10%). (MIC values are expressed in μg ml^−1).

[13] = system: MDR Providencia stuartii; assay: as above; assay type: cell-based; settings: Providencia stuartii (IR57 India, V7) MDR
Text: as §2

[14] = system: Burkholderia cepacia (1322, V23); assay: MIC-assay, Mueller-Hinton broth with G-block alginate, 384-well, OD600
[15] = system: strains of Klebsiella pneumoniae displaying MDR phenotypes; assay: MIC-assay, Mueller-Hinton broth with G-block alginate, 384-well, OD600 (Table 10); assay type: cell-based
Text: Minimum inhibitory concentration (MICs) of different antibiotics for strains of Klebsiella pneumoniae displaying MDR phenotypes in the presence of varying concentrations of OligoCF-5/20 (0-10%). (MIC values are expressed in μg ml^−1).

[16] = system: Acinetobacter baumannii (MDR ACB, Libya, V4); assay: MIC-assay, Mueller-Hinton broth with G-block alginate, 384-well, OD600
[17] = Table 9, G-block (OligoCF-5/20) 0%
[18] = Table 9, G-block (OligoCF-5/20) 2%
[19] = Table 9, G-block (OligoCF-5/20) 6%
[20] = Table 9, G-block (OligoCF-5/20) 10%

C[C@H]1[C@H](NC(=O)/C(=N\OC(C)(C)C(=O)O)c2csc(N)n2)C(=O)N1S(=O)(=O)O [Aztreonam]
MIC [1]: 0.0625 µg/mL (≈ 0.144 µM)
MIC ([2]; OligoCF-5/20 0G): 8 µg/mL (≈ 18.4 µM)
MIC ([2]; OligoCF-5/20 +2% G): 16 µg/mL (≈ 36.7 µM)
MIC ([2]; OligoCF-5/20 +6% G): 4 µg/mL (≈ 9.19 µM)
MIC ([2]; OligoCF-5/20 +10% G): 2 µg/mL (≈ 4.59 µM)
MIC [3, 17]: 64 µg/mL (≈ 147 µM)
MIC [3, 18]: 32 µg/mL (≈ 73.5 µM)
MIC [3, 19]: 16 µg/mL (≈ 36.7 µM)
MIC [3, 20]: 4 µg/mL (≈ 9.19 µM)
MIC ([4]; Acinetobacter lwoffii, OligoCF-5/20 0G, read-out: MIC): 32 µg/mL (≈ 73.5 µM)
MIC ([4]; OligoCF-5/20 +2% G): 16^† μg/ml
MIC ([4]; OligoCF-5/20 +6% G): 4^† μg/ml
MIC ([4]; OligoCF-5/20 +10% G): 1^† μg/ml
MIC ([5]; Acinetobacter, OligoCF-5/20 0G, read-out: MIC): 256 µg/mL (≈ 588 µM)
MIC ([5]; OligoCF-5/20 +2% G): 128^† μg/ml
MIC ([5]; OligoCF-5/20 +6% G): 64^† μg/ml
MIC ([5]; OligoCF-5/20 +10% G): 32^† μg/ml
MIC ([6]; Table 1, V4 ACB (Libya), OligoCF-5/20 0G): 1020 µg/mL (≈ 2350 µM)
MIC ([6]; Table 1, V4 ACB (Libya), OligoCF-5/20 +2% G): 512 µg/mL (≈ 1180 µM)
MIC ([6]; Table 1, V4 ACB (Libya), OligoCF-5/20 +6% G): 256 µg/mL (≈ 588 µM)
MIC ([6]; Table 1, V4 ACB (Libya), OligoCF-5/20 +10% G): 128 µg/mL (≈ 294 µM)
MIC ([6]; Table 7, V4 MDR Acin baum (Libya), M-block oligomer 0M): 2050 µg/mL (≈ 4700 µM)
MIC ([6]; Table 7, V4 MDR Acin baum (Libya), M-block oligomer +2% M): 512 µg/mL (≈ 1180 µM)
MIC ([6]; Table 7, V4 MDR Acin baum (Libya), M-block oligomer +6% M): 256 µg/mL (≈ 588 µM)
MIC ([6]; Table 7, V4 MDR Acin baum (Libya), M-block oligomer +10% M): 64 µg/mL (≈ 147 µM)
effect in combination with alginate oligomers ([6]; Example 1, Acinetobacter baumannii isolate): more positive effect
MIC ([7]; Klebsiella pneumoniae, OligoCF-5/20 0G, read-out: MIC): 256 µg/mL (≈ 588 µM)
MIC ([7]; OligoCF-5/20 +2% G): 512^‡ μg/ml
MIC ([7]; OligoCF-5/20 +6% G): 128^† μg/ml
MIC ([7]; OligoCF-5/20 +10% G): 64^† μg/ml
MIC ([8]; OligoCF-5/20 0G): 32 µg/mL (≈ 73.5 µM)
MIC ([8]; OligoCF-5/20 +2% G): 16 µg/mL (≈ 36.7 µM)
MIC ([8]; OligoCF-5/20 +6% G): < 4 µg/mL
MIC ([8]; OligoCF-5/20 +10% G): < 4 µg/mL
MIC ([9]; OligoCF-5/20 0G): 64 µg/mL (≈ 147 µM)
MIC ([9]; OligoCF-5/20 +2% G): 16 µg/mL (≈ 36.7 µM)
MIC ([9]; OligoCF-5/20 +6% G): 8 µg/mL (≈ 18.4 µM)
MIC ([9]; OligoCF-5/20 +10% G): 8 µg/mL (≈ 18.4 µM)
MIC ([10]; Acinetobacter baumannii, OligoCF-5/20 0G, read-out: MIC): > 512 µg/mL
MIC ([10]; OligoCF-5/20 +2% G): 512^† μg/ml
MIC ([10]; OligoCF-5/20 +6% G): 256^† μg/ml
MIC ([10]; OligoCF-5/20 +10% G): 128^† μg/ml
MIC ([11]; OligoCF-5/20 0G): < 1 µg/mL
MIC ([11]; OligoCF-5/20 +2% G): < 1 µg/mL
MIC ([11]; OligoCF-5/20 +6% G): < 1 µg/mL
MIC ([11]; OligoCF-5/20 +10% G): < 1 µg/mL
MIC ([12]; G-block (OligoCF-5/20) 0%, read-out: MIC): 256 µg/mL (≈ 588 µM)
MIC ([12]; G-block (OligoCF-5/20) 2%, read-out: MIC): 256 µg/mL (≈ 588 µM)
MIC ([12]; G-block (OligoCF-5/20) 6%): 128 µg/mL (≈ 294 µM)
MIC ([12]; G-block (OligoCF-5/20) 10%, read-out: MIC): 64 µg/mL (≈ 147 µM)
MIC ([13]; G-block (OligoCF-5/20) 0%): > 1020 µg/mL
MIC ([13]; G-block (OligoCF-5/20) 2%): > 1020 µg/mL
MIC ([13]; G-block (OligoCF-5/20) 6%): > 1020 µg/mL
MIC ([13]; G-block (OligoCF-5/20) 10%): > 1020 µg/mL
MIC ([14]; Table 8, G-block (OligoCF-5/20) 0%): > 16 µg/mL
MIC ([14]; Table 8, G-block (OligoCF-5/20) 2%): > 16 µg/mL
MIC ([14]; Table 8, G-block (OligoCF-5/20) 6%): > 16 µg/mL
MIC ([14]; Table 8, G-block (OligoCF-5/20) 10%): > 16 µg/mL
MIC ([15]; Klebsiella pneumoniae (5712, Wales, V12) MDR, G-block (OligoCF-5/20) 0%, read-out: MIC): 4 µg/mL (≈ 9.19 µM)
MIC ([15]; Klebsiella pneumoniae (5712, Wales, V12) MDR, G-block (OligoCF-5/20) 2%, read-out: MIC): 4 µg/mL (≈ 9.19 µM)
MIC ([15]; Klebsiella pneumoniae (5712, Wales, V12) MDR, G-block (OligoCF-5/20) 6%, read-out: MIC): 4 µg/mL (≈ 9.19 µM)
MIC ([15]; Klebsiella pneumoniae (5712, Wales, V12) MDR, G-block (OligoCF-5/20) 10%, read-out: MIC): 4 µg/mL (≈ 9.19 µM)
MIC ([15]; Klebsiella pneumoniae (IR25, India, V6) MDR, G-block (OligoCF-5/20) 2%, read-out: MIC): 256 µg/mL (≈ 588 µM)
MIC ([15]; Klebsiella pneumoniae (IR25, India, V6) MDR, G-block (OligoCF-5/20) 6%): 128 µg/mL (≈ 294 µM)
MIC ([15]; Klebsiella pneumoniae (IR25, India, V6) MDR, G-block (OligoCF-5/20) 10%, read-out: MIC): 64 µg/mL (≈ 147 µM)
MIC ([15]; Klebsiella pneumoniae (K3, India, V8) MDR, G-block (OligoCF-5/20) 2%, read-out: MIC): 256 µg/mL (≈ 588 µM)
MIC ([15]; Klebsiella pneumoniae (K3, India, V8) MDR, G-block (OligoCF-5/20) 6%): 128 µg/mL (≈ 294 µM)
MIC ([15]; Klebsiella pneumoniae (K3, India, V8) MDR, G-block (OligoCF-5/20) 10%): 128 µg/mL (≈ 294 µM)
MIC [16, 17]: 4 µg/mL (≈ 9.19 µM)
MIC [16, 18]: 4 µg/mL (≈ 9.19 µM)
MIC [16, 19]: 1 µg/mL (≈ 2.3 µM)
MIC [16, 20]: 0.5 µg/mL (≈ 1.15 µM)
